From US20260200939A1, “MOLECULAR GLUE DEGRADER COMPOUNDS AND USES THEREOF” (Novartis AG, priority 2022, published 2026)

Experiments:
[1] = target: T1, Recombinant RNF126 (Homo sapiens, UniProt Q9BV68); assay: RNF126 Binding Assay, gel-based ABPP
T1 construct: FLAG (C); host or cells: HEK293T
Method: RNF126 mammalian expression plasmid with a C-terminal FLAG tag was purchased from Origene (Origene Technologies Inc., RC204986). The plasmid was transformed into NEB 5-alpha Competent E. coli (DH5) cells (NEB product no. C2987H). The following day, a single transformed colony was used to inoculate 50 ml of nutrient rich LB medium containing kanamycin (50 μg/ml) and was incubated at 37° C. overnight, with agitation (250 rpm). A Miniprep (Qiagen) kit was used to isolate the plasmid before sequence verification with appropriate primers.
HEK293T cells were grown to 30-50% confluency in DMEM supplemented with 10% FBS (Corning) and maintained at 37° C. with 5% CO2. Immediately before transfection, media was replaced with DMEM containing 5% FBS. Each plate was transfected with 24 μg of overexpression plasmid with 24 μL Lipofectamine 3000 (Invitrogen) in Opti-MEM. After 48 h cells were collected in PBS, lysed by sonication, and batch bound with anti-DYKDDDDK resin (GenScript, L00432) for 2 hours. Lysate and resin were washed with PBS and eluted with 133.33 μg/ml 3×FLAG peptide (ApexBio, A6001) in PBS. Five elutions were performed for 15 minutes each. Elutions were concentrated and the protein was stored in PBS. Concentration and purity was determined using the BCA assay and western blotting.
Recombinant RNF126 ([…]) was pre-treated with either DMSO vehicle or covalent ligand at 37° C. for 30 min in 25 μL of PBS, and subsequently treated with of IA-Rhodamine (concentrations designated in figure legends) (Setareh Biotech) at room temperature for 1 h in the dark. The reaction was stopped by addition of 4×reducing Laemmli SDS sample loading buffer (Alfa Aesar). After boiling at 95° C. for 5 min, the samples were separated on precast 4-20% Criterion TGX gels (Bio-Rad). Probe-labeled proteins were analyzed by in-gel fluorescence using a ChemiDoc MP (Bio-Rad).

[2] = target: T2, SMARCA2 (Homo sapiens, UniProt P51531); assay: SMARCA2 Degradation assay, Western blotting; assay type: cell-based
T2 construct: endogenous in cells; host or cells: MV-4-11
Method: (§1) C33A cells were purchased from American Type Culture Collection (ATCC) and were cultured in Dulbecco's Modified Eagle Medium (DMEM) containing 10% (v/v) fetal bovine serum (FBS) and maintained at 37° C. with 5% CO2. 22RV1 cells were purchased from the ATCC and were cultured in RPMI-1640 Medium containing 10% (v/v) FBS and maintained at 37° C. with 5% CO2. HEK293T cells were obtained from the UC Berkeley Cell Culture Facility and were cultured in DMEM containing 10% (v/v) FBS and maintained at 37° C. with 5% CO2. K562 cells were obtained from the UC Berkeley Cell Culture Facility and were cultured in Iscove's Modified Dulbecco's Medium (IMDM) containing 10% (v/v) FBS and maintained at 37° C. with 5% CO2. MV-4-11 cells were obtained from the ATCC and were cultured in IMDM containing 10% (v/v) FBS and maintained at 37° C. with 5% CO2. A549 cells were obtained from the ATCC and were cultured in F-12K Medium containing 10% (v/v) FBS and maintained at 37° C. with 5% CO2. Mino cells were obtained from the ATCC and were cultured in RPMI-1640 Medium containing 10% (v/v) FBS and maintained at 37° C. with 5% CO2. LNCaP cells were obtained from the ATCC and were cultured in RPMI-1640 Medium containing 10% (v/v) FBS and maintained at 37° C. with 5% CO2. Unless otherwise specified, all cell culture materials were purchased from Gibco. It is not known whether HEK293T cells are from male or female origin.
(§2) Cells were washed twice with cold PBS, scraped, and pelleted by centrifugation (700 g, 5 min, 4° C.). Pellets were resuspended in PBS, sonicated, clarified by centrifugation (12,000 g, 10 min, 4° C.), and lysate was transferred to new low-adhesion microcentrifuge tubes. Proteome concentrations were determined using BCA assay and lysate was diluted to appropriate working concentrations.
Proteins were resolved by SDS/PAGE and transferred to nitrocellulose membranes using the Trans-Blot Turbo transfer system (Bio-Rad). […]

[3] = system: Androgen Receptor; assay: Androgen Receptor Degradation assay, Western blotting; assay type: cell-based; conditions: for degradation of AR, in words: LNCaP and 22RV1 prostate cancer cells
Method: as §1, §2
(§3) Proteins were resolved by SDS/PAGE and transferred to nitrocellulose membranes using the Trans-Blot Turbo transfer system (Bio-Rad). Membranes were blocked with 5% BSA in Tris-buffered saline containing Tween 20 (TBS-T) solution for 30 min at RT, washed in TBS-T, and probed with primary antibody diluted in recommended diluent per manufacturer overnight at 4° C. After 3 washes with TBS-T, the membranes were incubated in the dark with IR680- or IR800-conjugated secondary antibodies at 1:10,000 dilution in 5% BSA in TBS-T at RT for 1 h. After 3 additional washes with TBST, blots were visualized using an Odyssey Li-Cor fluorescent scanner. The membranes were stripped using ReBlot Plus Strong Antibody Stripping Solution (EMD Millipore) when additional primary antibody incubations were performed. Antibodies used in this study were CDK4 (Abcam ab108357), Vinculin (Abcam ab129002), GAPDH (Cell Signaling Technology 14C10), RNF126 (Santa Cruz Biotechnology sc-376005), BRD4 (Abcam ab128874), Beta Actin (Cell Signaling Technology 13E5), PDE5 (Abcam ab259945), AR-V7 (Abcam ab273500), c-Abl (Santa Cruz Biotechnology sc-23), SMARCA2 (Abcam ab240648), LRRK2 (Abcam ab133474), BTK (Cell Signaling Technology D3H5), Androgen Receptor (Abcam ab133273).

[4] = target: T3, pure RNF126 protein (Homo sapiens, UniProt Q9BV68); assay: Mass spectrometry analysis of compound-labeled RNF126 tryptic digests; assay type: binding
T3 construct: FLAG (C); host or cells: HEK293T

[5] = target: T4, CDK4 (Homo sapiens, UniProt P11802); assay: CDK4 Degradation Assay, Western blotting; assay type: cell-based; conditions: for CDK4 degradation, in words: C33A cells, immunoblot
T4 construct: endogenous in cells; host or cells: C33A
Method: as §1, §2, §3

[6] = target: T5, AR-V7 (Homo sapiens, UniProt P10275); assay: AR-V7 degradation in prostate cancer cells, Western blotting; assay type: cell-based; conditions: LNCaP and 22RV1 prostate cancer cells
T5 construct: endogenous in cells; host or cells: 22RV1 and/or LNCaP
T5 sequence (P10275 1-644 isoform P10275-3): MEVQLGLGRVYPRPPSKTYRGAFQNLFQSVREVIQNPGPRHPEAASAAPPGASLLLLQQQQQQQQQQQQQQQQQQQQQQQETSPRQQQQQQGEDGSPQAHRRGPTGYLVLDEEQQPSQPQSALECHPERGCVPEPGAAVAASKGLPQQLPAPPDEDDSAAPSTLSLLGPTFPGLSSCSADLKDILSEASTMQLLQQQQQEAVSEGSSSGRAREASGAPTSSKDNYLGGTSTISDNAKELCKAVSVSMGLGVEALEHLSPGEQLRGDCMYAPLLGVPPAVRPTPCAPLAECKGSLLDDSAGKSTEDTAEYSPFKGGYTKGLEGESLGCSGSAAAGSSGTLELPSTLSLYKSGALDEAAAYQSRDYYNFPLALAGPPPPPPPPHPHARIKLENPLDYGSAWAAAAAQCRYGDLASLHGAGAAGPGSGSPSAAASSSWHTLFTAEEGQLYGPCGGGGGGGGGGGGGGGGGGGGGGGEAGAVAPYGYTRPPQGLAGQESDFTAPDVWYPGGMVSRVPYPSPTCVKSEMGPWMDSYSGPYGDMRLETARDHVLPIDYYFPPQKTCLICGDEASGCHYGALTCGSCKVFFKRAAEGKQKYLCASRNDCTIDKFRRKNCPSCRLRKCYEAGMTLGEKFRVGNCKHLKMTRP
Method: as §1, with “LNCaP cells were obtained from the ATCC and were cultured in RPMI-1640 Medium containing 10% (v/v) FBS and maintained at 37° C. with 5% CO2. Unless otherwise specified, all cell culture materials were purchased from Gibco. It is not known whether HEK293T cells are from male or female origin.” left out
Cells were washed twice with cold PBS, scraped, and pelleted by centrifugation (700 g, 5 min, 4° C.). […] Proteome concentrations were determined using BCA assay and lysate was diluted to appropriate working concentrations. […]

T2 sequence (P51531 whole entry): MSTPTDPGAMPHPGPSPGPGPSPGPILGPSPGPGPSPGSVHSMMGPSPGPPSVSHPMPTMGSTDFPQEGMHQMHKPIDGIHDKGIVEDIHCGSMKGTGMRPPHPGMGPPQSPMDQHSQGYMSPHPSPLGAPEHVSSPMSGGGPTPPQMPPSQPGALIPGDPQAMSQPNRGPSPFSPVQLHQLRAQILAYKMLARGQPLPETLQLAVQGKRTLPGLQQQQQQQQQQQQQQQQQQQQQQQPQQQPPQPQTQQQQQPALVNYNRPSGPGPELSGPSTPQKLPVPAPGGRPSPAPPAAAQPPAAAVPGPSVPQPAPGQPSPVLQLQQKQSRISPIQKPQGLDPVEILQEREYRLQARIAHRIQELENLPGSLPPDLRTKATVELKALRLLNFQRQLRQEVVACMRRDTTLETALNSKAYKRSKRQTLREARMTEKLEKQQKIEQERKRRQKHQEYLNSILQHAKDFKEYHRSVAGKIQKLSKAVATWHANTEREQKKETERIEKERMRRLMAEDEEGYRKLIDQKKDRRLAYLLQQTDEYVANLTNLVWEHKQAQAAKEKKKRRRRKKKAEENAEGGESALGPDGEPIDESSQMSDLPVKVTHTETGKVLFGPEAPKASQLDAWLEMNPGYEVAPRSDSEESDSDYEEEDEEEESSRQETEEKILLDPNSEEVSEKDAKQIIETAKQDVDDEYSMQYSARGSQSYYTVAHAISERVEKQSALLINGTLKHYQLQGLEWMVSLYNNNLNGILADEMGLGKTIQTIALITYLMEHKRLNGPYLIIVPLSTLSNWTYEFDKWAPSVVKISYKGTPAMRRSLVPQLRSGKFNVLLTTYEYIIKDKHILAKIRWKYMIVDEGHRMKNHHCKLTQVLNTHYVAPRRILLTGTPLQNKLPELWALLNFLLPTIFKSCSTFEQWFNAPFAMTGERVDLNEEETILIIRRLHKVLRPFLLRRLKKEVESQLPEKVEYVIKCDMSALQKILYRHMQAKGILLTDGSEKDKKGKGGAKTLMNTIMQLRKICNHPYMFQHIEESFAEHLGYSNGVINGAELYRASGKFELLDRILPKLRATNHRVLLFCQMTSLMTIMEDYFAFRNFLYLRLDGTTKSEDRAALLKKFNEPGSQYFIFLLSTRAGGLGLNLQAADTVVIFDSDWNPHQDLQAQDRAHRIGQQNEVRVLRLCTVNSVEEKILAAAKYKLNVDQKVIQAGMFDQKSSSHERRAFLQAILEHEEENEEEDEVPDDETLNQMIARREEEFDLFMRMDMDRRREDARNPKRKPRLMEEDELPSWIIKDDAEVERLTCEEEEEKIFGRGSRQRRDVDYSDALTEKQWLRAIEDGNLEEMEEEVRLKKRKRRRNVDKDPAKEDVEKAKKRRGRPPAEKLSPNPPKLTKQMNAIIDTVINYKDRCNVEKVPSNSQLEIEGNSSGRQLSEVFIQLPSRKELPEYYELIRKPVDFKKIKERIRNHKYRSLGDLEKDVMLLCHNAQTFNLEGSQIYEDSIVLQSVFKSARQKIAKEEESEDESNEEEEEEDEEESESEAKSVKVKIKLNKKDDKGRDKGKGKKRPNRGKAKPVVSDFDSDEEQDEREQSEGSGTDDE
T1 sequence (Q9BV68 whole entry): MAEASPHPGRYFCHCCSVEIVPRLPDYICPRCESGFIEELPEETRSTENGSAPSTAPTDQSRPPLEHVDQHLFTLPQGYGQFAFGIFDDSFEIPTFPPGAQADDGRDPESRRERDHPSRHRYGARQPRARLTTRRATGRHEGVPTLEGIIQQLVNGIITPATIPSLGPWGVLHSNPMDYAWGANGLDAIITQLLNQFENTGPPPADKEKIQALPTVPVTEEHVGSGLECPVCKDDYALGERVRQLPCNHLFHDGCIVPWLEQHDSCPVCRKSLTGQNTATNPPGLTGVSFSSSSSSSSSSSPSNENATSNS
T3 sequence (Q9BV68 whole entry): as above

COc1ccc(C(=O)/C=C/C(=O)N2CCN(c3cc(-c4ccccc4O)nnc3N)CC2)cc1 [Compound 128]
binding to RNF126 (gel-based ABPP), in words [1]: potent binding | degradation of SMARCA2, in words ([2]; MV-4-11 leukemia cancer cells): degradation of SMARCA2 in MV-4-11 leukemia cancer cells cell in a dose-responsive manner

COc1ccc(C(=O)/C=C/C(=O)N[C@H]2C[C@H](NC(=O)CN3CCN(c4ccc(C(=O)N[C@H]5CC[C@H](Oc6ccc(C#N)c(Cl)c6)CC5)nn4)CC3)C2)c(F)c1 [Compound 201, N-((1r,4r)-4-(3-chloro-4-cyanophenoxy)cyclohexyl)-6-(4-(2-(((1r,3r)-3-((E)-4-(2-fluoro-4-methoxyphenyl)-4-oxobut-2-enamido)cyclobutyl)amino)-2-oxoethyl)piperazin-1-yl)pyridazine-3-carboxamide]
DC50 [3]: > 10 µM

COc1ccc(C(=O)/C=C/C(=O)N[C@H]2C[C@H](NC(=O)CN3CCN(c4cc(-c5ccccc5O)nnc4N)CC3)C2)cc1 [Compound 283, (E)-N-((1r,3r)-3-(2-(4-(3-amino-6-(2-hydroxyphenyl)pyridazin-4-yl)piperazin-1-yl)acetamido)cyclobutyl)-4-(4-methoxyphenyl)-4-oxobut-2-enamide]
DC50 [2]: > 5 µM

COc1ccc(C(=O)/C=C/C(=O)N[C@H]2C[C@H](NC(=O)CN3CCN(c4ccc(C(=O)N[C@H]5CC[C@H](Oc6ccc(C#N)c(Cl)c6)CC5)nn4)CC3)C2)cc1 [Compound 200, N-((1r,4r)-4-(3-chloro-4-cyanophenoxy)cyclohexyl)-6-(4-(2-(((1r,3r)-3-((E)-4-(4-methoxyphenyl)-4-oxobut-2-enamido)cyclobutyl)amino)-2-oxoethyl)piperazin-1-yl)pyridazine-3-carboxamide]
DC50 [3]: > 10 µM

COc1ccc(C(=O)/C=C/C(=O)N2CCN(c3ccc(Nc4ncc5cc(C(=O)N(C)C)n(C6CCCC6)c5n4)nc3)CC2)cc1 [Compound 113, (E)-7-cyclopentyl-2-((5-(4-(4-(4-methoxyphenyl)-4-oxobut-2-enoyl)piperazin-1-yl)pyridin-2-yl)-amino)-N,N-dimethyl-7H-pyrrolo[2,3-d]pyrimidine-6-carboxamide]
adduct on RNF126 by mass spectrometry of tryptic digests [4]: reacts with C32 of RNF126 | CDK4 degradation, in words [5]: in a dose-responsive manner

COc1ccc(C(=O)/C=C/C(=O)N[C@H]2C[C@H](NC(=O)CN3CCN(c4ccc(C(=O)N[C@H]5CC[C@H](Oc6ccc(C#N)c(Cl)c6)CC5)nn4)CC3)C2)c(Cl)c1 [Compound 286, N-((1r,4r)-4-(3-chloro-4-cyanophenoxy)cyclohexyl)-6-(4-(2-(((1r,3r)-3-((E)-4-(2-chloro-4-methoxyphenyl)-4-oxobut-2-enamido)cyclobutyl)amino)-2-oxoethyl)piperazin-1-yl)pyridazine-3-carboxamide]
DC50 [3]: > 10 µM

COc1ccc(C(=O)/C=C/C(=O)N2CCN(c3ccc(Nc4ncc5c(C)c(C(C)=O)c(=O)n(C6CCCC6)c5n4)nc3)CC2)cc1 [Compound 136]
binding to RNF126 (gel-based ABPP), in words [1]: maintained binding to RNF126 | CDK4 degradation, in words [5]: capable to degrading CDK4

COc1ccc(C(=O)/C=C/C(=O)N[C@H]2C[C@H](NC(=O)CN3CCN(c4cc(-c5ccccc5O)nnc4N)CC3)C2)c(F)c1 [Compound 282, (E)-N-((1r,3r)-3-(2-(4-(3-amino-6-(2-hydroxyphenyl)pyridazin-4-yl)piperazin-1-yl)acetamido)cyclobutyl)-4-(2-fluoro-4-methoxyphenyl)-4-oxobut-2-enamide]
DC50 [2]: > 5 µM

COc1ccc(C(=O)/C=C/C(=O)N2CCN(C(=O)COc3ccc(-c4csc(N5CCOCC5)n4)cc3)CC2)cc1 [Compound 132]
degradation of AR, in words [3]: degradation of AR and AR-V7 | binding to RNF126 (gel-based ABPP), in words [1]: potent binding | degradation of AR-V7, in words [6]: degradation of AR and AR-V7

COc1ccc(C(=O)/C=C/C(=O)N2CCN(c3ccc(-c4csc(N5CCOCC5)n4)cc3)CC2)cc1 [Compound 133]
degradation of AR, in words [3]: degradation of AR and AR-V7 | binding to RNF126 (gel-based ABPP), in words [1]: potent binding | degradation of AR-V7, in words [6]: degradation of AR and AR-V7

CN(C)C(=O)c1cc2cnc(Nc3ccc(N4CCN(C(=O)/C=C/C(=O)c5ccc(Br)cc5)CC4)cn3)nc2n1C1CCCC1 [Compound 284, (E)-2-((5-(4-(4-(4-bromophenyl)-4-oxobut-2-enoyl)piperazin-1-yl)pyridin-2-yl)amino)-7-cyclopentyl-N,N-dimethyl-7H-pyrrolo[2,3-d]pyrimidine-6-carboxamide]
DC50 [5]: > 10 µM

COc1cc(F)ccc1C(=O)/C=C/C(=O)N1CCN(c2ccc(Nc3ncc4cc(C(=O)N(C)C)n(C5CCCC5)c4n3)nc2)CC1 [Compound 265, (E)-7-cyclopentyl-2-((5-(4-(4-(4-fluoro-2-methoxyphenyl)-4-oxobut-2-enoyl)piperazin-1-yl)pyridin-2-yl)amino)-N,N-dimethyl-7H-pyrrolo[2,3-d]pyrimidine-6-carboxamide]
DC50 [5]: > 10 µM
